15 compounds from PubChem BioAssay (NCI) can be followed below.

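Method: 48-hour compound exposure of cells in 96-well plates, five concentrations, linear interpolation of endpoints. Definition used: TGI = concentration required for complete inhibition of growth.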

What all share (assay): growth of human tumour cells (NCI), 48 h
Assay [1] relates to BT-549 breast.
Assay [2] relates to COLO 205 colon.
Assay [3] deals with HCC-2998 colon.
Assay [4] deals with HCT-15 colon.
Assay [5] has as its system HOP-62 NSCLC.
Assay [6] deals with HOP-92 NSCLC.
Assay [7] relates to HS 578T breast.
The subject of assay [8] is KM12 colon.
The test system of assay [9] is LOX IMVI melanoma.
The subject of assay [10] is MCF7 breast.
The test system of assay [11] is NCI-H226 lung.
The subject of assay [12] is OVCAR-3 ovarian.
In assay [13] the test system is OVCAR-4 ovarian.
Assay [14] deals with PC-3 prostate.
The test system of assay [15] is SF-268 CNS.
Assay [16] deals with SF-295 CNS.
The subject of assay [17] is SK-MEL-5 melanoma.
Assay [18] relates to SK-OV-3 ovarian.
Assay [19] concerns SR leukemia.
Assay [20] deals with A498 renal.

With `O=C(NNc1ccnc2cc(Cl)ccc12)/C(=C\c1ccccc1Cl)NC(=O)c1ccccc1`, the TGI in [1] was 87.8 µM; in assay [2], 81.8 µM; in assay [3], over 100 µM; in assay [4], over 100 µM; in assay [5], 48.6 µM; in assay [6] it was over 100 µM. Moreover, the TGI was over 100 µM in [7]; 51.6 µM in assay [8]; 32 µM in [9]; 46.1 µM in [10]; 67.6 µM in assay [11]; 38.2 µM in [12]. Besides, the TGI in [13] was over 100 µM; in assay [14], over 100 µM; in assay [15] it was 85.1 µM; in [16], 96.1 µM; in [17], 81.2 µM; in assay [18] it was over 100 µM. The same compound displayed a TGI in assay [19] of over 100 µM.

Regarding `C=CCn1c(C23CC4CC(CC(C4)C2)C3)n[nH]c1=S`, the TGI in [20], in assay [1], in assay [2], in [3], in [4] and in [5] was over 100 µM in each case. Besides, the TGI in assay [7], in assay [8], in [9], in assay [10], in assay [11] and in assay [12] was over 100 µM in each case. The TGI in assay [13] is over 100 µM; in assay [14] it was over 100 µM; in assay [15], over 100 µM; in [16] it was over 100 µM; in [18], over 100 µM; in assay [19], 29.3 µM.

Consider `COC(=O)Nc1nc2ccc(S(=O)(=O)n3nnc4ccccc43)cc2[nH]1`, for which the TGI in assay [20] is over 100 µM; in assay [1] it was 48.1 µM; in assay [2] it was over 100 µM; in [4], over 100 µM; in assay [5], 51.2 µM; in assay [6], 35.8 µM. Moreover, the TGI in [7], in assay [8], in assay [9], in [10], in [12] and in assay [13] was over 100 µM each time. Further, the TGI in [14] is over 100 µM; in assay [15], over 100 µM; in [16], 90.7 µM; in assay [17], over 100 µM; in assay [18] it was 41.2 µM; in assay [19] it was over 100 µM.

Consider `COc1ccc(N=C2C(=Nc3ccc(OC)cc3)N(S(=O)(=O)c3ccccc3)C(=S)N2c2ccccc2)cc1`, for which the TGI in assay [1], in assay [2], in [3], in assay [4], in [5] and in assay [6] was over 100 µM throughout. Further, the TGI in [7], in assay [8], in assay [10], in [11], in assay [12] and in assay [14] was over 100 µM throughout. Also, the TGI in [15], in assay [16], in assay [17], in assay [18] and in [19] was over 100 µM throughout.

`Cc1ccc(S(=O)(=O)/N=C(\N)N(C)N=O)cc1`: the TGI in assay [20], in assay [1], in [2], in assay [4], in assay [5] and in assay [6] was over 100 µM in each case. For the same compound, the TGI in assay [7], in assay [8], in [9], in [10], in assay [11] and in assay [12] was over 100 µM each time. For the same compound, the TGI in assay [13], in [14], in assay [15], in [16], in [18] and in assay [19] was over 100 µM each time.

Consider `COC(=O)[C@H]1C[C@H]1NC(=O)C(CC(=O)OCc1ccccc1)NC(=O)OCc1ccccc1` (stereo not given in full), for which the TGI in [20] was over 100 µM; in assay [1], 55.9 µM; in assay [2], 43.2 µM; in assay [3] it was over 100 µM; in [4], over 100 µM; in assay [7], over 100 µM. For the same compound, the TGI was 77.1 µM in assay [8]; over 100 µM in assay [9]; over 100 µM in [10]; over 100 µM in assay [11]; over 100 µM in assay [14]; over 100 µM in assay [15]. Also, the TGI in [16] was over 100 µM; in assay [17], 55.9 µM; in assay [18] it was over 100 µM; in [19], over 100 µM.

For the compound `N#Cc1nc(COCc2ccccc2)oc1N`, the TGI in [1], in assay [2], in assay [3], in [4], in assay [5] and in assay [6] was over 100 µM each time. Besides, the TGI in assay [7], in assay [8], in assay [9], in [10], in [11] and in assay [12] was over 100 µM each time. Also, the TGI in assay [13], in [14], in assay [15], in assay [16], in [18] and in assay [19] was over 100 µM in each case.

On to `O=C(O)c1ccc(-c2nc3ccc(Cl)cc3[nH]2)cc1`, for which the TGI in assay [1], in assay [2], in [3], in assay [4], in assay [5] and in assay [6] was over 100 µM throughout. The TGI in assay [7], in assay [8], in assay [10], in assay [11], in [12] and in [14] was over 100 µM in each case. Also, the TGI in assay [16], in [17], in assay [18] and in [19] was over 100 µM throughout.

As to `c1ccc(C2SCc3nc4cc5ccccc5cc4n32)cc1` (stereo not given), the TGI in [1], in [2], in [3], in [4], in assay [5] and in [6] was over 100 µM throughout. In addition, the TGI in assay [7], in [8], in assay [9], in [10], in assay [11] and in assay [12] was over 100 µM in each case. Moreover, the TGI in assay [13], in [14], in [15], in assay [16], in [18] and in assay [19] was over 100 µM in each case.

For the compound `COc1ccc(OC)c(C23CCCC(C2)N(C)CC3)c1` (stereo not given), the TGI is 89.9 µM in [20]; over 100 µM in [1]; over 100 µM in assay [4]; over 100 µM in [7]; 33.5 µM in assay [8]; 32.1 µM in assay [10]. The TGI in assay [12] is 46.7 µM; in assay [13] it was 62.1 µM; in assay [14] it was 41.2 µM; in assay [15] it was over 100 µM; in [16], 66.2 µM; in assay [19] it was 44.7 µM.

Turning to `COc1cc(C=C2N=C(c3ccccc3)N(n3c(-c4ccccc4)nc4ccccc4c3=O)C2=O)cc(OC)c1OC`, the TGI in assay [1] is 32.5 µM; in [2], 52.8 µM; in assay [3] it was 89.6 µM; in [4] it was over 100 µM; in assay [5], 29.9 µM; in [6], 33.7 µM. For the same compound, the TGI in assay [7] was found to be 51.6 µM; in [8], 46.3 µM; in assay [9], 41.3 µM; in [10], 60.7 µM; in assay [11], 49.4 µM; in [12], 54 µM. The TGI in assay [13] was 96.5 µM; in [14], over 100 µM; in assay [15], 69 µM; in [16], 41 µM; in assay [17], 56.6 µM; in assay [18], 91.4 µM. This compound displayed a TGI in [19] of over 100 µM.

With `CC(=O)Nc1ccc(CNc2cc(=O)n(C)c(=O)[nH]2)cc1`, the TGI in assay [1], in [2], in [3], in assay [4], in assay [5] and in assay [6] was over 100 µM throughout. In addition, the TGI in assay [7], in assay [8], in [9], in assay [10], in assay [11] and in assay [12] was over 100 µM throughout. Besides, the TGI in [13], in assay [14], in assay [15], in assay [16], in assay [17] and in assay [18] was over 100 µM each time. For the same compound, the TGI in [19] was over 100 µM.

Turning to `Cc1nn(C(=O)c2ccc(Cl)cc2)c2c1C(c1cccc([N+](=O)[O-])c1)SC(N)=N2` (stereo not given), the TGI is over 10 µM in assay [1]; over 10 µM in assay [2]; over 10 µM in assay [3]; 7.51 µM in [4]; over 10 µM in assay [5]; over 10 µM in [6]. In addition, the TGI in assay [7], in assay [8], in [9], in assay [10], in assay [11] and in [12] was over 10 µM each time. Besides, the TGI in assay [13], in assay [14], in assay [15], in assay [16], in [17] and in [18] was over 10 µM each time. Besides, in [19], the TGI is over 10 µM.

Consider `CCOC(=O)C(NCc1ccc2c(c1)OCO2)(NC(=O)c1ccccc1)C(F)(F)F` (stereo not given), for which the TGI in assay [1], in assay [2], in assay [3], in assay [4], in assay [5] and in assay [6] was over 100 µM each time. The TGI in assay [7], in assay [8], in assay [9], in assay [10], in [11] and in [12] was over 100 µM throughout. Moreover, the TGI in assay [13], in [14], in assay [15], in [16], in assay [17] and in assay [18] was over 100 µM in each case. Further, in [19], the TGI is over 100 µM.

`O=C(CCCN1CCC2(CC1)NC(=O)c1ccccc1O2)c1ccc(F)cc1`: the TGI in assay [1], in assay [2], in [3], in assay [4], in assay [5] and in [6] was over 100 µM each time. Moreover, the TGI in assay [7], in [8], in [9], in assay [10], in [11] and in assay [12] was over 100 µM throughout. Also, the TGI in [13], in assay [14], in assay [15], in assay [16], in assay [17] and in [18] was over 100 µM in each case. Moreover, the TGI in assay [19] was over 100 µM.
